Here are results for 22 compounds from patent US10696677B2 (Research Triangle Institute, priority 2016, dated 2020).

Series [1] addresses T1, hCB1 (Homo sapiens, UniProt P21554). The series can be described thus: radioligand displacement binding at CB1 (membranes of CHO-K1 cells over-expressing receptor). To be noted: for CB2 Ki/CB1 Ki selectivity ratio: CB1 versus CB2.
Procedure: (§1) All compounds were characterized by H^1 NMR and evaluated using a calcium mobilization assay. […] Further characterization of select compounds was performed using radioligand displacement of [3H]1 and equilibrium dissociation constant (Ki) values were determined.
The next series has as its target hCB2 (Homo sapiens, UniProt P34972). The series can be described thus: radioligand displacement binding at CB2 ([3H]CP55940, membranes of CHO-K1 cells over-expressing receptor).
Series [2] deals with T1, hCB1. The experiment in a line: functional fluorescent CB1 activated Gαq16-coupled intracellular calcium mobilization assay in CHO-K1 cells. The format is cell-based. Set-up: expressed in transfected cells; host or cells: CHO-K1 (membranes). Conditions: average of 3-6 measurements, read-out: Apparent antagonist dissociation constant (Ke) at hCB1. (In general: Calcium assays in cells follow changes in intracellular calcium, usually with a dye or a luminescent sensor.)

The next series relates to MDCK. The experiment in a line: MDCK BBB Assay. Conditions: for % Permeable: MDCK BBB assay; for MDCK BBB Assay (Basolateral/Apical Peak Area Ratio) Mean: MDCK cells. The format is in vitro ADME.
Setting [3] is: read-out: Binding affinity (Ki) at hCB1, radioligand displacement, CHO-K1 membranes, average of 3-6 measurements.
Setting [4] is: read-out: Binding affinity (Ki) at hCB2, displacement of [3H]CP55940, CHO-K1 membranes, average of 3-6 measurements.

Like-named read-outs stand apart in the source and are kept apart here.

Chain of hCB2 (P34972 whole entry): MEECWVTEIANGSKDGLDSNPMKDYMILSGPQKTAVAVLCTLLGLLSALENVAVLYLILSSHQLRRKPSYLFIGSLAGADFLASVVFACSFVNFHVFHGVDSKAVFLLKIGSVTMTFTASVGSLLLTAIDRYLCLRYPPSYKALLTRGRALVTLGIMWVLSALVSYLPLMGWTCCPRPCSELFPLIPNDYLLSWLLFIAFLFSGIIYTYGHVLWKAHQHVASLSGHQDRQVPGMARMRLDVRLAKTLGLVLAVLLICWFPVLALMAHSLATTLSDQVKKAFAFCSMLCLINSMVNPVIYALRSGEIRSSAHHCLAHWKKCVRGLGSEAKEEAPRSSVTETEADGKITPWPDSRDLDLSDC
T1 sequence (P21554 whole entry): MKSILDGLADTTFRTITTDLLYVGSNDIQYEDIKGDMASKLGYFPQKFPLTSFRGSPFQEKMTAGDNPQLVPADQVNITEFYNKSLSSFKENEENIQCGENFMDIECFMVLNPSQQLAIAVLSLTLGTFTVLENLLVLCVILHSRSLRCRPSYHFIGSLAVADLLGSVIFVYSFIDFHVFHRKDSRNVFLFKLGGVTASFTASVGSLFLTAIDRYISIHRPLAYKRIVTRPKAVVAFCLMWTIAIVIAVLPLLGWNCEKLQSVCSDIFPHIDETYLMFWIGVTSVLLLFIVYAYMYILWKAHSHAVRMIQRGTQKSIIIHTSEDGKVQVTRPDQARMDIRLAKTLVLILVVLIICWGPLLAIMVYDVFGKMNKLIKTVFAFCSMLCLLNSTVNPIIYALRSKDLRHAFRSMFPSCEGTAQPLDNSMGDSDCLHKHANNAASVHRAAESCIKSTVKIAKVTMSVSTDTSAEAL
Procedure for hCB2: as §1

Broadly, the Ki is a measure of affinity in units of concentration, obtained from inhibition or displacement. On to `N#Cc1ccc(N2CCN(c3ncnc4c3nc(-c3ccccc3Cl)n4-c3ccc(Cl)cc3)CC2)nc1` [Compound 3, 6-{4-[8-(2-Chlorophenyl)-9-(4-chlorophenyl)-9H-purin-6-yl]piperazin-1-yl}pyridine-3-carbonitrile], for which, on hCB1 [1], the affinity corresponds to a Ki of 4.8 nM and the “CB2 Ki/CB1 Ki selectivity ratio” value was determined as 101. For the same compound, the Ki at hCB2 stood at 484 nM. Also, the Kb at hCB1 [2] came out at 11.3 nM. For the same compound, in the series with MDCK, the “% Permeable” value is given as 1% and the “MDCK BBB Assay (Basolateral/Apical Peak Area Ratio) Mean” value amounted to 0.005.

With `CCCCC(=O)NC1CCN(c2ncnc3c2nc(-c2ccncc2C)n3-c2ccc(Cl)cc2)CC1` [Compound 90, N-{1-[9-(4-chlorophenyl)-8-(3-methylpyridin-4-yl)-9H-purin-6-yl]piperidin-4-yl}pentanamide], on hCB1 [1], affinity was put at a Ki of 12.1 nM and the “CB2 Ki/CB1 Ki selectivity ratio” value is 51. This compound showed a Ki at hCB2 of 620 nM. In addition, the Kb on hCB1 [2] is 42.2 nM. In addition, in the series with MDCK, the “% Permeable” value was found to be 38% and the “MDCK BBB Assay (Basolateral/Apical Peak Area Ratio) Mean” value is on record as 0.379.

Turning to `Clc1ccc(-n2c(-c3ccccc3Cl)nc3c(N4CCC(Nc5ccccn5)CC4)ncnc32)cc1` [Compound 32, N-{1-[8-(2-chlorophenyl)-9-(4-chlorophenyl)-9H-purin-6-yl]piperidin-4-yl}pyridin-2-amine], on hCB1 [1], the affinity corresponds to a Ki of 2 nM and the “CB2 Ki/CB1 Ki selectivity ratio” value came to 2300. On hCB2, this compound returned a Ki of 4600 nM. Also, the Kb at hCB1 [2] came out at 54 nM. In addition, in the series on MDCK, the “% Permeable” value turned out to be 0% and the “MDCK BBB Assay (Basolateral/Apical Peak Area Ratio) Mean” value is given as 0.001.

Regarding `O=C(Nc1ccccc1)N1CCN(c2ncnc3c2nc(-c2ccccc2Cl)n3-c2ccc(C(F)(F)F)nc2)CC1` [Compound 45], the Ki was determined as 39 nM at hCB1 [1] and 790 nM on hCB2. For the same compound, the “CB2 Ki/CB1 Ki selectivity ratio” value at hCB1 [1] was found to be 30. The Kb at hCB1 [2] was 8 nM.

Take `Clc1ccc(-n2c(-c3ccccc3Cl)nc3c(N4CCC(Nc5ccccc5)CC4)ncnc32)cc1` [Compound 31, 1-[8-(2-chlorophenyl)-9-(4-chlorophenyl)-9H-purin-6-yl]-N-phenylpiperidin-4-amine]: at hCB1 [2], the Kb came to 1.4 nM. Besides, in the series with MDCK, the “% Permeable” value worked out at 0% and the “MDCK BBB Assay (Basolateral/Apical Peak Area Ratio) Mean” value turned out to be 0.

As for `CCCCC(=O)NC1CCN(c2ncnc3c2nc(-c2ccncc2Cl)n3-c2ccc(Cl)cc2)CC1` [Compound 91, N-{1-[9-(4-chlorophenyl)-8-(3-chloropyridin-4-yl)-9H-purin-6-yl]piperidin-4-yl}pentanamide], on hCB1 [1], the Ki came to 9.2 nM and the “CB2 Ki/CB1 Ki selectivity ratio” value stood at 126. Further, the Ki on hCB2 was 1150 nM. The Kb on hCB1 [2] was 27.8 nM. Also, in the series on MDCK, the “% Permeable” value is on record as 41% and the “MDCK BBB Assay (Basolateral/Apical Peak Area Ratio) Mean” value is 0.409.

Regarding `CC(C)CS(=O)(=O)N1CCN(c2ncnc3c2nc(-c2ccccc2Cl)n3-c2ccc(Cl)cc2)CC1` [Compound 82, 8-(2-Chlorophenyl)-9-(4-chlorophenyl)-6-{4-[(2-methylpropyl)sulfonyl]piperazin-1-yl}-9H-purine], the inhibition constant Ki on hCB1 [1] (setting [3]) turned out to be 2 nM; at hCB2, 2840 nM. Moreover, the Kb at hCB1 [2] turned out to be 0.2 nM. Besides, the “% Permeable” value with MDCK amounted to 0%.

One may read the melting point as the temperature, or range, at which the solid turns liquid. `O=S(=O)(NC1CCN(c2ncnc3c2nc(-c2ccccc2Cl)n3-c2ccc(Cl)cc2)CC1)c1ccccc1F` [Compound 1, N-{1-[8-(2-Chlorophenyl)-9-(4-chlorophenyl)-9H-purin-6-yl]piperidin-4-yl}-2-fluorobenzene-1-sulfonamide]: the melting point is 185 to 187 °C. Also, the Kb at hCB1 [2] stood at 0.1 nM.

Regarding `CCCCC(=O)NC1(c2ccccc2)CCN(c2ncnc3c2nc(-c2ccncc2)n3-c2ccc(Cl)cc2)CC1` [Compound 55, N-{1-[9-(4-chlorophenyl)-8-pyridin-4-yl-9H-purin-6-yl]-4-phenylpiperidin-4-yl}pentanamide], the Ki on hCB1 [1] is 272 nM; at hCB2, 1570 nM. Moreover, the “CB2 Ki/CB1 Ki selectivity ratio” value on hCB1 [1] is 5.8. In addition, the Kb at hCB1 [2] was 869 nM.

In the case of `Cn1ccc(-n2c(-c3ccccc3Cl)nc3c(N4CCN(Cc5ccccc5Cl)CC4)ncnc32)n1` [Compound 51, 8-(2-Chlorophenyl)-6-{4-[(2-chlorophenyl)methyl]piperazin-1-yl}-9-(1-methyl-1H-pyrazol-3-yl)-9H-purine], the melting point is 150 to 152 °C. The Kb at hCB1 [2] is 380 nM.

`CCCCC(=O)NC1(c2ccccc2)CCN(c2ncnc3c2nc(-c2ccncc2Cl)n3-c2ccc(Cl)cc2)CC1` [Compound 93, N-{1-[9-(4-chlorophenyl)-8-(3-chloropyridin-4-yl)-9H-purin-6-yl]-4-phenylpiperidin-4-yl}pentanamide]: on hCB1 [1], the Ki was found to be 17.9 nM and the “CB2 Ki/CB1 Ki selectivity ratio” value amounted to 46. Also, on hCB2, the Ki turned out to be 830 nM. Further, at hCB1 [2], the Kb worked out at 18.5 nM. In addition, in the series with MDCK, the “% Permeable” value is recorded as 0% and the “MDCK BBB Assay (Basolateral/Apical Peak Area Ratio) Mean” value is reported as 0.000.

Take `CN(Cc1ccccc1)C1CCN(c2ncnc3c2nc(-c2ccccc2Cl)n3-c2ccc(Cl)cc2)CC1` [Compound 39, N-benzyl-1-[8-(2-chlorophenyl)-9-(4-chlorophenyl)-9H-purin-6-yl]-N-methylpiperidin-4-amine]: on hCB1 [1], the “CB2 Ki/CB1 Ki selectivity ratio” value is on record as 98. Also, the values for the inhibition constant Ki at hCB1 [1] (setting [3]) and on hCB2 were 42 nM and 4100 nM, respectively. The Kb at hCB1 [2] came to 106 nM.

As for `FC(F)(F)c1ccc(-n2c(-c3ccccc3Cl)nc3c(N4CCN(Cc5ccccc5Cl)CC4)ncnc32)cn1` [Compound 47, 8-(2-Chlorophenyl)-6-{4-[(2-chlorophenyl)methyl]piperazin-1-yl}-9-[6-(trifluoromethyl)pyridin-3-yl]-9H-purine], the melting point is 189 to 190 °C. In addition, on hCB1 [2], the Kb was found to be 140 nM.

In the case of `CCCCS(=O)(=O)N1CCN(c2ncnc3c2nc(-c2ccccc2Cl)n3-c2ccc(Cl)cc2)CC1` [Compound 81, 8-(2-Chlorophenyl)-9-(4-chlorophenyl)-6-[4-(butylsulfonyl)piperazin-1-yl]-9H-purine], the “CB2 Ki/CB1 Ki selectivity ratio” value on hCB1 [1] was determined as 871. The Ki on hCB1 [1] (setting [3]) was 0.6 nM. Moreover, the Ki at hCB2 (setting [4]) was 505 nM. In addition, the Kb on hCB1 [2] was 0.4 nM. In the series with MDCK, the “% Permeable” value came out at 5% and the “MDCK BBB Assay (Basolateral/Apical Peak Area Ratio) Mean” value is recorded as 0.053.

Regarding `O=S(=O)(NC1CCN(c2ncnc3c2nc(-c2ccccc2Cl)n3-c2ccc(Cl)cc2)CC1)c1ccc(F)cc1` [Compound 4, N-{1-[8-(2-Chlorophenyl)-9-(4-chlorophenyl)-9H-purin-6-yl]piperidin-4-yl}-4-fluorobenzene-1-sulfonamide], the melting point lay in the range of 196 to 197 °C. Further, on hCB1 [2], the Kb is 1.1 nM. Moreover, in the series with MDCK, the “% Permeable” value is recorded as 0% and the “MDCK BBB Assay (Basolateral/Apical Peak Area Ratio) Mean” value was determined as 0.0006.

As to `Cn1cc(-n2c(-c3ccccc3Cl)nc3c(N4CCC(NS(=O)(=O)c5ccc(F)c(F)c5)CC4)ncnc32)cn1` [Compound 12, N-{1-[8-(2-Chlorophenyl)-9-(1-methyl-1H-pyrazol-4-yl)-9H-purin-6-yl]piperidin-4-yl}-3,4-difluorobenzene-1-sulfonamide], the melting point fell in the range of 162 to 164 °C. The Kb on hCB1 [2] was 140 nM.

As to `NC(=O)c1ccc(-n2c(-c3ccccc3Cl)nc3c(N4CCN(Cc5ccccc5Cl)CC4)ncnc32)cc1` [Compound 48, 4-[8-(2-chlorophenyl)-6-{4-[(2-chlorophenyl)methyl]piperazin-1-yl}-9H-purin-9-yl]benzamide], the melting point lay within 120 to 122 °C. The Kb at hCB1 [2] turned out to be 440 nM.

Consider `Clc1ccc(-n2c(-c3ccccc3Cl)nc3c(N4CCC(c5nc6ccccc6[nH]5)CC4)ncnc32)cc1` [Compound 30, 6-[4-(1H-benzimidazol-2-yl)piperidin-1-yl]-8-(2-chlorophenyl)-9-(4-chlorophenyl)-9H-purine], for which, on hCB1 [1] (setting [3]), the Ki is 47 nM. The Kb at hCB1 [2] is 12 nM.

In the case of `O/N=C(/c1ccc(F)cc1)C1CCN(c2ncnc3c2nc(-c2ccccc2Cl)n3-c2ccc(Cl)cc2)CC1` [Compound 29, (E)-{1-[8-(2-chlorophenyl)-9-(4-chlorophenyl)-9H-purin-6-yl]piperidin-4-yl}(4-fluorophenyl)methanone oxime], the Ki on hCB1 [1] is 4 nM. The Kb on hCB1 [2] was found to be 21 nM.

Consider `Fc1ccc(CNC2CCN(c3ncnc4c3nc(-c3ccccc3Cl)n4-c3ccc(Cl)cc3)CC2)cc1` [Compound 40, 1-[8-(2-chlorophenyl)-9-(4-chlorophenyl)-9H-purin-6-yl]-N-(4-fluorobenzyl)piperidin-4-amine], for which the Kb at hCB1 [2] stood at 82 nM.

Regarding `CC(C)S(=O)(=O)N1CCN(c2ncnc3c2nc(-c2ccccc2Cl)n3-c2ccc(Cl)cc2)CC1` [Compound 80, 8-(2-Chlorophenyl)-9-(4-chlorophenyl)-6-{4-[(1-methylethyl)sulfonyl]piperazin-1-yl}-9H-purine], the inhibition constant (Ki) at hCB1 [1] (setting [3]) is 1.4 nM; at hCB2 (setting [4]) it was 978 nM. Further, the Kb on hCB1 [2] was found to be 1.5 nM. In the series with MDCK, the “% Permeable” value was 0%. The “MDCK BBB Assay (Basolateral/Apical Peak Area Ratio) Mean” value in the series on MDCK came out at 0.000.

As to `Cc1cc(-n2c(-c3ccccc3Cl)nc3c(N4CCN(Cc5ccccc5Cl)CC4)ncnc32)no1` [Compound 49, 8-(2-chlorophenyl)-6-{4-[(2-chlorophenyl)methyl]piperazin-1-yl}-9-(5-methyl-1,2-oxazol-3-yl)-9H-purine], the melting point lay in the range of 79 to 81 °C. For the same compound, at hCB1 [2], the Kb was found to be 320 nM.
